In patent publication EP0908457B1, “3-(1,2-benzisothiazol- and isoxazol-5-Y1)-2,4(1H,3H)-pyrimidinedione or thione and 3-(1,2-benzisothiazol- and isoxazol-5-y1)-4(3H)-pyrimidinone or thione herbicidal agents” (BASF AKTIENGESELLSCHAFT, priority 1997, dated 1999):

Tests used:
[1] = system: Oryza sativa, (L.) Tebonnet; assay: Rice tolerance to post-transplant applications under flooded paddy conditions (Example 187), ORYSAT (Rice, Tebonnet); conditions: for herbicidal effect rating ORYSAT: rated three to four weeks after treatment; for ORYSAT: herbicidal effect rating 0-9, three to four weeks after treatment; as to herbicidal effect rating ORYSAT: meaning of each grade not given here
[2] = system: Sagittaria pygmaea, L.; assay: Preemergence weed control under flooded paddy conditions, SAGPY (Arrowhead (Pygmaea)); type: in vivo; conditions: flooded paddy; for herbicidal effect rating, SAGPY: rated three to four weeks after treatment; for SAGPY: herbicidal effect rating 0-9, three to four weeks after treatment; as to herbicidal effect rating, SAGPY: meaning of each grade not given here
[3] = system: Echinochloa oryzoides (Ard.) Fritsch.; assay: Preemergence weed control under flooded paddy conditions, ECHORC (Watergrass (Calif.)); type: in vivo; conditions: flooded paddy; for herbicidal effect rating, ECHORC: rated three to four weeks after treatment; for ECHORC: herbicidal effect rating 0-9, three to four weeks after treatment; as to herbicidal effect rating, ECHORC: meaning of each grade not given here
[4] = system: Cyperus iria; assay: Preemergence weed control under flooded paddy conditions, CYPIR (Rice Flatsedge); type: in vivo; conditions: flooded paddy; for herbicidal effect rating, CYPIR: rated three to four weeks after treatment; for CYPIR: herbicidal effect rating 0-9, three to four weeks after treatment; as to herbicidal effect rating, CYPIR: meaning of each grade not given here
[5] = system: Monochoria vaginalis, Presl.; assay: Preemergence weed control under flooded paddy conditions, MOOVA (Monochoria); type: in vivo; conditions: flooded paddy; for herbicidal effect rating, MOOVA: rated three to four weeks after treatment; for MOOVA: herbicidal effect rating 0-9, three to four weeks after treatment; as to herbicidal effect rating, MOOVA: meaning of each grade not given here
[6] = system: Cyperus serotinus, Rottb.; assay: Preemergence weed control under flooded paddy conditions, CYPSE (Flatsedge); type: in vivo; conditions: for herbicidal effect rating, CYPSE: rated three to four weeks after treatment; for CYPSE: herbicidal effect rating 0-9, three to four weeks after treatment; as to herbicidal effect rating, CYPSE: meaning of each grade not given here
[7] = Rate 0.0320 kg/ha, preemergence weeds
[8] = Rate 0.0620 kg/ha, preemergence weeds
[9] = Rate 0.1250 kg/ha, preemergence weeds
[10] = Rate 0.2500 kg/ha, preemergence weeds
[11] = Rate 0.0320 kg/ha, preemergence
[12] = Rate 0.0620 kg/ha, preemergence
[13] = Rate 0.1250 kg/ha, preemergence
[14] = Rate 0.2500 kg/ha, preemergence
[15] = 0.0320 kg/ha, preemergence weeds
[16] = 0.0620 kg/ha, preemergence weeds
[17] = 0.1250 kg/ha, preemergence weeds
[18] = 0.2500 kg/ha, preemergence weeds

In the case of `CC(C)NC(=O)c1nsc2ccc(-n3c(=O)cc(C(F)(F)F)n(C)c3=O)cc12` [Example 330, 1,2-Benzisothiazole-3-carboxamide, 5-[3,6-dihydro-3-methyl-2,6-dioxo-4-(trifluoromethyl)-1(2H)-pyrimidinyl]-N-isopropyl-], the “herbicidal effect rating ORYSAT” value ([1]; Rate 0.0320 kg/ha) is reported as 7.0, the “herbicidal effect rating ORYSAT” value ([1]; Rate 0.0620 kg/ha) is reported as 7.0 and the “herbicidal effect rating ORYSAT” value ([1]; Rate 0.1250 kg/ha) is reported as 7.0. The “herbicidal effect rating ORYSAT” value ([1]; Rate 0.2500 kg/ha) was 7.0, the “herbicidal effect rating, SAGPY” value [2, 7] was 0.0 and the “herbicidal effect rating, SAGPY” value [2, 8] was 0.0. For the same compound, the “herbicidal effect rating, SAGPY” value [2, 9] was 0.0, the “herbicidal effect rating, SAGPY” value [2, 10] was 0.0 and the “herbicidal effect rating, ECHORC” value [3, 7] was 7.0. For the same compound, the “herbicidal effect rating, ECHORC” value [3, 8] was 7.0, the “herbicidal effect rating, ECHORC” value [3, 9] was 9.0 and the “herbicidal effect rating, ECHORC” value [3, 10] was 9.0. The “herbicidal effect rating, CYPIR” value [4, 7] was 0.0, the “herbicidal effect rating, CYPIR” value [4, 8] was 0.0 and the “herbicidal effect rating, CYPIR” value [4, 9] was 6.0. For the same compound, the “herbicidal effect rating, CYPIR” value [4, 10] was 6.0, the “herbicidal effect rating, MOOVA” value [5, 7] was 9.0 and the “herbicidal effect rating, MOOVA” value [5, 8] was 9.0. The “herbicidal effect rating, MOOVA” value [5, 9] was 9.0, the “herbicidal effect rating, MOOVA” value [5, 10] was 9.0 and the “herbicidal effect rating, CYPSE” value [6, 7] was 5.0. The “herbicidal effect rating, CYPSE” value [6, 8] was 5.0, the “herbicidal effect rating, CYPSE” value [6, 9] was 5.0 and the “herbicidal effect rating, CYPSE” value [6, 10] was 5.0.

For `Cn1c(C(F)(F)F)cc(=O)n(-c2ccc3snc(C#N)c3c2)c1=O` [Example 373, 1,2-Benzisothiazole-3-carbonitrile, 5-[3,6-dihydro-3-methyl-2,6-dioxo-4-(trifluoromethyl)-1(2H)-pyrimidinyl]-], the “herbicidal effect rating ORYSAT” value ([1]; Rate 0.0320 kg/ha) was 5.5, the “herbicidal effect rating ORYSAT” value ([1]; Rate 0.0620 kg/ha) was 6.5 and the “herbicidal effect rating ORYSAT” value ([1]; Rate 0.1250 kg/ha) was 6.0. For the same compound, the “herbicidal effect rating ORYSAT” value ([1]; Rate 0.2500 kg/ha) was 8.0, the “herbicidal effect rating, SAGPY” value [2, 11] was 5.5 and the “herbicidal effect rating, SAGPY” value [2, 12] was 8.5. The “herbicidal effect rating, SAGPY” value [2, 13] was 9.0, the “herbicidal effect rating, SAGPY” value [2, 14] was 9.0 and the “herbicidal effect rating, ECHORC” value [3, 11] was 6.5. For the same compound, the “herbicidal effect rating, ECHORC” value [3, 12] was 9.0, the “herbicidal effect rating, ECHORC” value [3, 13] was 9.0 and the “herbicidal effect rating, ECHORC” value [3, 14] was 9.0. For the same compound, the “herbicidal effect rating, CYPIR” value [4, 11] was 6.5, the “herbicidal effect rating, CYPIR” value [4, 12] was 9.0 and the “herbicidal effect rating, CYPIR” value [4, 13] was 9.0. The “herbicidal effect rating, CYPIR” value [4, 14] was 9.0, the “herbicidal effect rating, MOOVA” value [5, 11] was 9.0 and the “herbicidal effect rating, MOOVA” value [5, 12] was 9.0. The “herbicidal effect rating, MOOVA” value [5, 13] was 9.0, the “herbicidal effect rating, MOOVA” value [5, 14] was 9.0 and the “herbicidal effect rating, CYPSE” value [6, 11] was 2.0. The “herbicidal effect rating, CYPSE” value [6, 12] was 5.0, the “herbicidal effect rating, CYPSE” value [6, 13] was 7.5 and the “herbicidal effect rating, CYPSE” value [6, 14] was 8.0.

Compound `COC(=O)CN(C(=O)c1nsc2ccc(-n3c(=O)cc(C(F)(F)F)n(C)c3=O)cc12)S(=O)(=O)Cc1ccccc1` [Example 441, Glycine, N-(benzylsulfonyl)-N-{{5-[3,6-dihydro-3-methyl-2,6-dioxo-4-(trifluoromethyl)-1(2H)-pyrimidinyl]-1,2-benzisothiazol-3-yl}carbonyl}-, methyl ester] has an ORYSAT ([1]; 0.0320 kg/ha) of 0.0, an ORYSAT ([1]; 0.0620 kg/ha) of 0.0 and an ORYSAT ([1]; 0.1250 kg/ha) of 2.0. For the same compound, the ORYSAT ([1]; 0.2500 kg/ha) was 3.0, the SAGPY [2, 15] was 0.0 and the SAGPY [2, 16] was 2.0. It also gave an SAGPY [2, 17] of 3.0, an SAGPY [2, 18] of 6.0 and an ECHORC [3, 15] of 0.0. It also gave an ECHORC [3, 16] of 0.0, an ECHORC [3, 17] of 0.0 and an ECHORC [3, 18] of 3.0. The CYPIR [4, 15] was 4.0, the CYPIR [4, 16] was 6.0 and the CYPIR [4, 17] was 9.0. The CYPIR [4, 18] was 9.0, the MOOVA [5, 15] was 9.0 and the MOOVA [5, 16] was 9.0. The MOOVA [5, 17] was 9.0, the MOOVA [5, 18] was 9.0 and the CYPSE [6, 16] was 0.0. The CYPSE [6, 17] was 4.0 and the CYPSE [6, 18] was 7.0.
